Publication PMC6492180, “Cytome micronucleus assays with a metabolically competent human derived liver cell line (Huh6): A promising approach for routine testing of chemicals?” (Environmental and Molecular Mutagenesis, 2018)
Read-outs that look alike come from different tables or passages of the source. Marks after values point to notes of the source that are not given here.

What was measured:
HepaRG = conditions: cited from earlier work
HepG2 = conditions: cited from earlier work
Human lymphocytes = conditions: cited from earlier work
Hep3B = conditions: cited from earlier work
Huh6 cells = tested on: Huh6 cells
Method: All experiments were performed in duplicate.
3.8–4.0 × 10^5 cells per well were seeded into 6‐well plates with 3 mL of RPMI (4% FBS) for 12 hr, then dilutions of stock solutions of the diagnostic mutagens were added for different time periods (4, 24, and 48 hr). In each experimental series solvent controls were included. Subsequently, the cells were washed twice with 3.0 mL medium. […] Finally, the cells were washed and trypsinised. Afterwards the cells were washed twice with 8.0 mL RPMI and collected on slides by cytocentrifugation (600 rpm, 5 min). The slides were air dried, fixed, and stained with DiffQuick according to the instructions of the manufacturer. For each experimental point, two cultures were tested per dose. From each culture ≥1,000 BN cells were evaluated under 400‐fold magnification (Nikon Photophot‐FXA, Tokyo, Japan). At least 2,000 binucleated cells were analyzed per dose for the determination of the different nuclear anomalies (MN, NBuds, and NBs).
The experiments were performed as described in the previous chapter. The cells were exposed only to one dose of the different mutagens and were cultivated after the seeding in 6‐well plates which contained 4% or 10% FBS in RPMI, respectively.
Data were evaluated by generalized linear model with Poisson counts. Chi‐square tests for overdispersion were applied. […] P values ≤0.05 were considered statistically significant.
^150-60 000 cells were seeded in 6 well plates with 3 ml RPMI (4% FBS), subsequently different solutions of the test compound (dissolved in medium) were added. After treatment for different time periods, the cells was washed and processed as described in the Material and Method section. […] From each culture 1000 binoculated cells were evaluated. BN-MN – number of micronucleated cells; MN - total number of micronuclei; CBPI – cytokinesis-block proliferation index
^1The experiments were conducted essentially as described in the footnote of Table S1A-I. *p≤0.05

[1] = ref IARC (2018); cited from earlier work
[2] = HepaRG, ref Le Hegarat et al., 2010
[3] = 10% FBS, 24 hr treatment, 50 µM
[4] = 10% FBS, 24 hr treatment, 100 µM

## Aflatoxin B1 [AFB1]
HepaRG
  Lowest effective concentration (LOEC) in micronucleus experiments: 0.25 (Le Hegarat et al., 2010) μM
  MN formation with the longer exposure time, treatment for 1 or 7 days (in words): stronger effects
HepG2
  Lowest effective concentration (LOEC) in micronucleus experiments: 0.5 (Josse et al., 2012) μM
Human lymphocytes
  Lowest effective concentration (LOEC) in micronucleus experiments: 0.1 + S9 (Miller et al., 1998) μM
Hep3B
  Lowest effective concentration (LOEC) in micronucleus experiments: 0.5 (Majer et al., 2004) μM
Huh6 cells
  Lowest effective concentration (LOEC) in micronucleus experiments: 10.0 µM
  MN effects after 24 hr (or longer) compared with 4 hr treatment (in words): similar
  MN frequencies with 10% serum compared with 4% serum (in words): stronger effects

## Cn1c(N)nc2c3cccnc3ccc21 [IQ, 2‐Amino‐3‐methyl‐3H‐imidazo[4,5‐f]quinoline]
HepaRG; [2]
  Lowest effective concentration (LOEC) in micronucleus experiments: Negative
  NOEC (highest no observable effect concentration tested): 500 µM
HepG2; HepG2, ref Knasmuller et al., 1999
  Lowest effective concentration (LOEC) in micronucleus experiments: 300.0 (Knasmuller et al., 1999) μM
[1]
  IARC classification: Formation of guanine adducts, formation of DNA‐reactive metabolites which cause DNA‐adducts; activation: CYP1A2 and NAT; detoxification: GSTs and SULTs; IARC: Group 2A
Human lymphocytes; Human lymphocytes, + S9, ref Fowler et al., 2014
  Lowest effective concentration (LOEC) in micronucleus experiments: 2200.0 µM
Human lymphocytes; Human lymphocytes, + S9, ref Katic et al., 2010
  Lowest effective concentration (LOEC) in micronucleus experiments: 250.0 µM
Huh6 cells; 4% FBS
  MN effects after 24 hr (or longer) compared with 4 hr treatment (in words): more pronounced effects
Huh6 cells; 4% FBS, 4hrs, 25 µM
  BN-MN (number of micronucleated cells): 16.0 ± 2.8 ‰
  Bridges: 0.5 ± 0.7 ‰
  Buds: 17.5 ± 2.1 ‰
  CBPI: 1.9 ± 0.1
  MN (total number of micronuclei): 16.0 ± 2.8 ‰
Huh6 cells; 4% FBS, 4hrs, 50 µM
  BN-MN (number of micronucleated cells): 18.0 ± 4.2 ‰
  Bridges: 0.5 ± 0.7 ‰
  Buds: 16.5 ± 0.7 ‰
  CBPI: 1.8 ± 0.1
  MN (total number of micronuclei): 19.0 ± 4.2 ‰
Huh6 cells; 4% FBS, 4hrs, 100 µM
  BN-MN (number of micronucleated cells): 23.5 ± 5.0* ‰
  Bridges: 1.5 ± 0.7 ‰
  Buds: 21.5 ± 2.1* ‰
  CBPI: 1.9 ± 0.0
  MN (total number of micronuclei): 24.5 ± 5.0* ‰
Huh6 cells; 4% FBS, 24hrs, 25 µM
  BN-MN (number of micronucleated cells): 18.5 ± 0.7 ‰
  Bridges: 0.0 ± 0.0 ‰
  Buds: 10.5 ± 2.1 ‰
  CBPI: 1.9 ± 0.0
  MN (total number of micronuclei): 19.5 ± 0.7 ‰
Huh6 cells; 4% FBS, 24hrs, 50 µM
  BN-MN (number of micronucleated cells): 26.0 ± 1.4* ‰
  Bridges: 2.0 ± 0.0 ‰
  Buds: 18.5 ± 2.1* ‰
  CBPI: 1.7 ± 0.0
  MN (total number of micronuclei): 26.5 ± 0.7 ‰
Huh6 cells; 4% FBS, 24hrs, 100 µM
  BN-MN (number of micronucleated cells): 39.0 ± 5.7* ‰
  Bridges: 5.5 ± 0.7 ‰
  Buds: 32.5 ± 5.0* ‰
  CBPI: 2.0 ± 0.1
  MN (total number of micronuclei): 44.0 ± 1.4* ‰
Huh6 cells; 4% FBS, 48hrs, 25 µM
  BN-MN (number of micronucleated cells): 20.5 ± 2.1 ‰
  Bridges: 0.0 ± 0.0 ‰
  Buds: 22.0 ± 4.2 ‰
  CBPI: 1.9 ± 0.1
  MN (total number of micronuclei): 21.5 ± 2.1 ‰
Huh6 cells; 4% FBS, 48hrs, 50 µM
  BN-MN (number of micronucleated cells): 32.0 ± 5.7* ‰
  Bridges: 1.0 ± 0.0 ‰
  Buds: 29.5 ± 2.1* ‰
  CBPI: 1.8 ± 0.1
  MN (total number of micronuclei): 32.5 ± 6.4* ‰
Huh6 cells; 4% FBS, 48hrs, 100 µM
  BN-MN (number of micronucleated cells): 40.0 ± 2.8* ‰
  Bridges: 3.0 ± 1.4 ‰
  Buds: 35.5 ± 3.5* ‰
  CBPI: 1.7 ± 0.1
  MN (total number of micronuclei): 47.5 ± 3.5* ‰
Huh6 cells; [3]
  BN-MN (number of micronucleated cells): 47.5 ± 3.5*
  Bridges: 0 ± 0.0
  Buds: 42 ± 2.8
  CBPI: 1.9 ± 0.0
  MN (total number of micronuclei): 51.0 ± 1.4*
Huh6 cells; [4]
  BN-MN (number of micronucleated cells): 63.5 ± 6.4*
  Bridges: 0.5 ± 0.7
  Buds: 49 ± 1.4
  CBPI: 1.8 ± 0.1
  MN (total number of micronuclei): 68.5 ± 5.0*
Huh6 cells; 24 hr treatment
  MN frequencies with 10% serum compared with 4% serum (in words): stronger effects
Huh6 cells; Huh6
  Lowest effective concentration (LOEC) in micronucleus experiments: 50.0 µM
